Source: patent publication US7348413B2, “Cancerous disease modifying antibodies” (Arius Research Inc., priority 2004, dated 2008)

Test system: PC-3, LnCap and CCD-27sk
Settings: 5 days
Method: In conjunction with testing for antibody binding the cytotoxic effect of the hybridoma supernatants were tested in the same cell lines: PC-3, LnCap and CCD-27sk. The Live/Dead cytotoxicity assay was obtained from Molecular Probes (Eu, OR). The assays were performed according to the manufacturer's instructions with the changes outlined below. Cells were plated before the assay at the predetermined appropriate density. After 2 days, 100 μl of supernatant from the hybridoma microtitre plates were transferred to the cell plates and incubated in a 5 percent CO2 incubator for 5 days. […] After 5 days of treatment, the plates were then emptied by inverting and blotting dry. Room temperature DPBS (Dulbecco's phosphate buffered saline) containing MgCl2 and CaCl2 was dispensed into each well from a multichannel squeeze bottle, tapped 3 times, emptied by inversion and then blotted dry. 50 μl of the fluorescent calcein dye diluted in DPBS containing MgCl2 and CaCl2 was added to each well and incubated at 37° C. in a 5% CO2 incubator for 30 minutes. The plates were read in a Perkin-Elmer HTS7000 fluorescence plate reader and the data was analyzed in Microsoft Excel.

Compound | cytotoxicity of positive controls
[N-]=[N+]=[N-] [NaN3, sodium azide] | generally produced cytotoxicity as expected
C[C@@H]1C[C@@H]([C@H](O)CC2CC(=O)NC(=O)C2)C(=O)[C@@H](C)C1 [cycloheximide] | generally produced cytotoxicity as expected
